Source: US20140363838A1, “MICROPERFUSION IMAGING PLATFORM” (William Marsh Rice University, priority 2013, published 2014)
Values after ≈ are worked out from the molar mass of the structure shown.

How the values were obtained:
MDA-MB-468 cells [1] = experiment: nuclear analysis (fixed cells, DAPI staining) of microcarriers on pBNC platform
[2] = tested on: cells on spheroid microcarrier; experiment: doxorubicin uptake, chip versus plate/static, by Z depth; format: cell-based
MDA-MB-468 cells [3] = experiment: live/dead (calcein-AM/EthD-1) viability assay, monolayer 96-well plate, fluorescence plate reader; format: cell-based; details: Homo sapiens, 96-well plate assays, 24 hour doxorubicin exposure, composite of 3 assays, read-out: Computed IC50 of composite dose curve (percent viability from EthD-1 intensity)
Experimental: Negative and positive controls were included as columns in each plate for the 96-well plate assays. Four negative control microcarriers were included in each assay on the BNC platform and one positive control assay served as the positive control for determining percent viability. Dose curves were plotted using a 5-parameter curve fitting algorithm in MATLAB (MATHWORKS®).
An equivalent viability assay was performed using standard 96-well plates for comparative purposes. Cells were seeded on 3, 96-well plates (CORNING®) at a final seeding density of about 10,000 cells per well. Plates were incubated at 37° C., 5% CO2 for 72 hours before media was exchanged for doxorubicin-containing media and incubated for an additional 24 hours. Negative control columns on each plate were prepared by replacing media with 70% methanol and incubating for 30 minutes at 37° C. Before imaging, all media was removed and cells were washed with warm PBS and replaced with a calcein-AM/EthD-1 solution with the same concentration as in the pBNC assay. […] A single point scan was performed on each well at excitation/emission wavelengths (nm) of 485/530 for calcein-AM and 530/645 for EthD-1.

MDA-MB-468 cells [4] = experiment: equivalent nuclear assay (fixed cells, DAPI staining) in monolayer
MDA-MB-468 cells [5] = experiment: live/dead (calcein-AM/EthD-1) viability assay, microcarrier format on pBNC device; format: cell-based; details: Homo sapiens, BNC assays, microcarriers, 24 hour doxorubicin exposure, composite of 3 assays, read-out: Computed IC50 of composite dose curve (percent viability from EthD-1 intensity)
Experimental: Microcarriers cultured with MDA-MB-468 cells were harvested after 5-6 days of static culture with regular media exchanges every 48 hours. Doxorubicin solutions were prepared in fresh, warm media in volumes of 1 mL and added to aliquots of about 200 μL microcarriers and statically incubated for 24 hours at 37° C. Each aliquot was transferred to a sterile 2 ml micro-centrifuge tube where the microcarriers were allowed to settle. After supernatant was removed, microcarriers were rinsed in warm PBS, and incubated in fresh media at 37° C. until assayed. Negative control microcarriers were prepared by replacing this media with 70% methanol and incubating at room temperature for 30 minutes, and then suspended in PBS.
For each assay performed in triplicate (on a prior card embodiment with outlets at the bottom of the card), 4 negative control microcarriers were placed in the 4 outer corners of a 3×4 array of micro-containers through careful manipulation with precision forceps. […]
Images were acquired using a monochrome DVC camera connected to an Olympus BX-2 microscope (Center Valley, Pa.) with a 4× objective at a single focal plane at the top of the microcarriers. […] Intensities for both FITC and TxRed channels were measured separately, using a custom written ImageJ macro that extracts the average of the maxima of a series of line profile scans down each microcarrier. […]

- IC50 (MDA-MB-468 cells [3]): 10 µg/mL (≈ 18.4 µM)
- IC50 (MDA-MB-468 cells [5]): 4 µg/mL (≈ 7.36 µM)
SMILES: COc1cccc2c1C(=O)c1c(O)c3c(c(O)c1C2=O)C[C@@](O)(C(=O)CO)C[C@@H]3O[C@H]1C[C@H](N)[C@H](O)[C@H](C)O1 [doxorubicin]
- cells remaining attached (identified nuclear counts) (MDA-MB-468 cells [1]; 100 μg/mL doxorubicin, 24 hour exposure, Cytodex I microcarriers): some cells remained attached
- total cell population (DAPI-stained nuclei / live-dead cell counting) (MDA-MB-468 cells [1]; increasing doxorubicin concentrations, both counting methods): decrease in total cell population
- average uncorrected nuclear compactness (MDA-MB-468 cells [1]; microcarrier format, increasing doxorubicin concentration): increase in the average uncorrected compactness
- average nuclear area (MDA-MB-468 cells [1]; microcarrier platform, across 10.000-fold doxorubicin concentration range): increases for low concentrations of doxorubicin and decreases for higher concentrations
- distribution of average DAPI intensity of nuclei (MDA-MB-468 cells [1]; microcarrier platform, high doxorubicin concentrations (10 μg/mL)): shift in the distribution of DAPI intensities towards lower intensities
- doxorubicin penetration into spheroid microcarrier cell layers (z-slices) ([2]; 2 hours incubation, observed for both chip and plate platforms): only able to penetrate through a few outer layers of cells
- doxorubicin uptake, chip compared with static ([2]; chip vs static, FIG. 14): highly comparable
- cells remaining attached (identified nuclear counts) (MDA-MB-468 cells [4]; 100 μg/mL doxorubicin, 24 hour exposure, monolayer): no monolayer cells remained attached
- average uncorrected nuclear compactness (MDA-MB-468 cells [4]; monolayer format, increasing doxorubicin concentration): increase in the average uncorrected compactness
- average nuclear area (MDA-MB-468 cells [4]; monolayer platform, across 10.000-fold doxorubicin concentration range): increases for low concentrations of doxorubicin and decreases for higher concentrations
- distribution of average DAPI intensity of nuclei (MDA-MB-468 cells [4]; monolayer platform, high doxorubicin concentrations (10 μg/mL)): shift in the distribution of DAPI intensities towards lower intensities
